Assays:
GSK3β = GSK3β Ser9 phosphorylation by western immunoblot; assay type: cell-based, human; details: after HGF treatment
Procedure: (§1) Endothelial cell monolayers grown to confluence in 12-well plates and challenged with HGF were lysed with 100 μl of 2×SDS sample buffer, and cell lysates were transferred into microcentrifuge tubes and boiled for 5 min. After a brief spin, proteins from 10 μl cell lysates were separated on 12% SDS-PAGE and transferred to nitrocellulose (Schleicher & Schuell, Keene, N.H.) (30V, 18 h). After blocking with PBST (PBS with 0.1% Tween 20) containing 5% non-fat milk for 1 hr, nitrocellulose blots were reacted with primary antibodies diluted in PBST containing 5% BSA for 1 hr, washed with PBST (3×10 min), incubated with peroxidase-conjugated secondary antibodies (goat anti-rabbit IgG, 1:10,000 dilution, Sigma; or goat anti-mouse IgG, 1:10,000 dilution, Bio-Rad Labs, Richmond, Calif.) diluted in PBST with 5% non-fat milk for 1 hr and again washed with PBST (3×10 min). Finally, immunoreactive proteins were detected using ECL. The relative intensities of the protein bands were quantified by scanning densitometry.
HGF has been reported to increase the phosphorylation status of GSK3β, a multi-functional enzyme involved in glycogen synthesis and protein synthesis regulation activity in mammary epithelial cells (Papkoff, J. and Aikawa, M. (1998) Biochem. Biophys. Res. Commun. 247:851-858). Of potential importance to barrier regulation, GSK3β phosphorylation results in enzymatic inactivation and increases the level of uncomplexed cellular β-catenin (Papkoff, J. (1997) J. Biol. Chem. 272(7):4536-4543). […] Concomitant with HGF-induced TER augmentation, increases in phosphorylation of GSK3β after HGF treatment was detected by increased immunofluorescence and prominent by Western blotting at 2 min, with peak intensity leveling off at 15-30 min, although remaining above basal levels for more than 2 hr. […]

p42/44 ERK = p42/44 ERK activation by phospho-specific immunoblotting; assay type: cell-based, human; details: HGF 20 ng/ml
Procedure: as §1
The MAP family of kinases (ERK1/2 and p38) are actively involved in agonist-induced endothelial cell actin reorganization and barrier regulation (Verin, A. D. et al. (2000) Am. J. Physiol: Lung Cell Molec. Phys. 279:L360-L370, 2000; Garcia, J. G. N. et al. (2001) J. Clin. Invest. 108:689-711) and have been noted to participate in HGF-mediated cell activation (Liang, C. C. and Chen, H. C. (2001) J. Biol. Chem. 276:21146-21152). These reports were confirmed in human endothelial cell monolayers incubated with HGF (20 ng/ml, for 1, 2, 5, 10, 15, 20, 30, 60, or 120 min) where activation of p42/44 ERK and p38 MAPK by HGF was detected by immunoblotting with antibodies that only recognize the phosphorylated (activated) forms of ERK or p38 MAPK. The activation of ERKs was evident at 5 min, maximal after 10-15 min with a gradual decline thereafter, but remaining sustained above basal levels for more than 2 hrs. […] The onset of HGF-mediated activation of p38 MAPK was similar to ERK, with plateau at 10-15 min. However, the duration of this response was much more truncated than ERK activation, beginning to decline by 20 min and returning to basal value by 1 hr.

Substance: HGF: heparin-binding glycoprotein, multifunctional cytokine, ligand of c-Met; purchased from R&D Systems
- duration of GSK3β phosphorylation above basal levels (GSK3β): more than 2 hr
- time of peak GSK3β phosphorylation (GSK3β): 15 to 30 min
- time at which GSK3β phosphorylation is prominent (GSK3β; Western blotting): 2 min
- duration of ERK activation above basal levels (p42/44 ERK): more than 2 hrs
- time at which ERK activation is evident (p42/44 ERK): 5 min
- time of maximal ERK activation (p42/44 ERK): 10 to 15 min
